Measured values taken from patent US8058309B2, “Protein kinase modulators and therapeutic uses thereof” (Novotyr Therapeutics Ltd., priority 2006, dated 2011).

Biological target: T1, IR (Homo sapiens, UniProt P06213)
T1 construct: expressed in transfected cells; host or cells: NIH3T3 fibroblasts over expressing IR
Test: Insulin receptor activation and signaling in fibroblasts overexpressing IR
Type: cell-based
Settings: fibroblasts over-expressing IR, insulin stimulation
Procedure: Tyrosine autophosphorylation of the β-subunit of IGF1R as well as downstream signaling induced by IGF1R were assayed in breast cancer MCF7 cells. Tyrosine autophosphorylation of the EGFR and the EGFR signaling was assayed in prostate cancer PC3 cells. Tyrosine autophosphorylation of the PDGFR and its signaling was assayed in fibroblasts overexpres sing PDGFR. Tyro sine autophosphorylation of the IR and its signaling was assayed in fibroblasts overexpressing IR. Cells were seeded in 6-well plates (MCF7-250,000 cells/well, PC3-150,000 cells/well, fibroblasts-140,000 cells/well) and 24 hours later medium was replaced by serum-free medium (DMEM supplemented with 100 units/ml penicillin and 100 μg/ml streptomycin). Following 20 hours of serum-starvation medium was replaced with medium containing various concentrations of the inhibitors in 0.1% DMSO for additional 4 hours. Cells were then stimulated for 5 min with 50 ng/ml IGF-1 (MCF7 cells), 20 ng/ml EGF (PC3 cells), 50 ng/ml PDGF (fibroblasts overexpressing PDGFR) or 100 nM insulin (fibroblasts overexpressing IR), washed twice with PBS and lysed by boiling sample buffer (10% glycerol, 50 mM Tris-HCl, pH 6.8, 3% SDS, and 5%, β-mercaptoethanol). Equal amounts of protein per lane were separated by 8% SDS-PAGE and transferred to a nitrocellulose membrane (Sartorius AG). […]

T1 sequence (P06213 28-1382): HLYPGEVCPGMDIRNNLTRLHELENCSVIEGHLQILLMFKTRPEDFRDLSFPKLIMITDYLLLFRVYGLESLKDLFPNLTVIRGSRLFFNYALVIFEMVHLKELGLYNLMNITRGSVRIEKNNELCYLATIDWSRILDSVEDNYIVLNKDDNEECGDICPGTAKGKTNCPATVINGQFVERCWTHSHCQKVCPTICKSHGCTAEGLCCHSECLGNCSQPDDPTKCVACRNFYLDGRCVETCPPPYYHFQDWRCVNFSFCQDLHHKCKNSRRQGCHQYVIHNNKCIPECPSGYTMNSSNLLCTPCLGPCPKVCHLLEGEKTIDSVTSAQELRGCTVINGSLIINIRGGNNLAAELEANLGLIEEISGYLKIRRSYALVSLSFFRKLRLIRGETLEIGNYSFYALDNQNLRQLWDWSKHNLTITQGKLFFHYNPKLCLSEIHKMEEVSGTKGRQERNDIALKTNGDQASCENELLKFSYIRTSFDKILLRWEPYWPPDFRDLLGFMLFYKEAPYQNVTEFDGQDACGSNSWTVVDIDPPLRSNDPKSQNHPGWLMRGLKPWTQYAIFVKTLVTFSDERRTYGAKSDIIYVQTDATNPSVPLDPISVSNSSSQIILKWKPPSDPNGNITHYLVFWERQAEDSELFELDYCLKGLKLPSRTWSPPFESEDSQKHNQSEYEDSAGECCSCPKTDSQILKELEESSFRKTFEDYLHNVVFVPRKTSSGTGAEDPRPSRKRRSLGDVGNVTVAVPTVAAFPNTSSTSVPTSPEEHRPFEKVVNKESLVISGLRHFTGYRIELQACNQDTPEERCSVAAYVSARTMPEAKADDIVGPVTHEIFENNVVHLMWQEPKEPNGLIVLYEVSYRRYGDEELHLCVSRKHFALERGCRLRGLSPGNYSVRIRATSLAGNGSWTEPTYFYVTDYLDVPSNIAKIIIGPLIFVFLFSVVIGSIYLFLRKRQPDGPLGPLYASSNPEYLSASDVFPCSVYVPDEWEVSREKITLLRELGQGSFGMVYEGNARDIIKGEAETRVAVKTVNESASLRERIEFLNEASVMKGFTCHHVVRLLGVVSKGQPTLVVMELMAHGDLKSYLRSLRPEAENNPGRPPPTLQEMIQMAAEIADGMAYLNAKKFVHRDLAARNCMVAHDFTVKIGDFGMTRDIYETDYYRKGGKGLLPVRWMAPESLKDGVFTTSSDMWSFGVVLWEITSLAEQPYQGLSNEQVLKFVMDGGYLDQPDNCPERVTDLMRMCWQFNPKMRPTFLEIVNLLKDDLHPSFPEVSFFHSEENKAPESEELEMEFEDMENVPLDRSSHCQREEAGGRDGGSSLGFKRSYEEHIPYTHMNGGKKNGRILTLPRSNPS

Q: For N#C/C(=C\c1cc(O)c(O)c(Br)c1)C(=S)NCc1cc(O)c(O)c(O)c1 [Compound 7], which “Inhibition of IR in intact cells” value is on record?
A: Its value is “inhibits”.
